We go through 16 molecules from patent US20240398772A1, “OXASPIRO DERIVATIVE, AND PREPARATION METHOD THEREFOR AND USE THEREOF” (SHUJING BIOPHARMA CO., LTD, priority 2021, published 2024).

The target in one assay is T1, MOR (Homo sapiens, UniProt P35372).
T1 construct: expressed in transfected cells; host or cells: CHO-K1/OP3 (name from the earlier reading)
The experiment in a line: Agonist test on MOR, cAMP level (CHO-K1/OP3 cells, cAMP assay kit). In kind it is cell-based. Particulars: for EC50: forskolin-stimulated cAMP, read-out: EC50 agonizing MOR receptor to affect cAMP level; for Emax: maximal effect of DAMGO is 100%, read-out: Emax agonizing MOR receptor to affect cAMP level. The protocol: 5×stimulation buffer was diluted to 1× with ddH2O, an appropriate amount of 500 mM IBMX (generally, the IBMX stock solution was prepared to be 500 mM, namely 1000×) was added to enable the final concentration of the IBMX to be 0.5 mM, and the mixture was mixed well for later use (after the IBMX was added, that precipitation occurred was normal, and the precipitate was dissolved by well mixing). It must be prepared right before use.
1.3.1.2 IBMX was dissolved with DMSO to prepare a 500 mM stock solution, which was aliquoted into 20 μL/tube and cryopreserved at −80° C. to avoid repetition of freezing and thawing.
1.3.1.3 Forskolin was dissolved with DMSO to prepare a 10 mM stock solution, which was aliquoted into 20 μL/tube and cryopreserved at −20° C. for later use.
The CAMP standard substance in the kit returned to room temperature, and an equivalent amount of the experimental buffer was added according to the volume marked on the bottle label. The mixture was vortexed for mixing, aliquoted according to 50 μL/tube, and cryopreserved at −20° C. for later use.
5 mL ddH2O was added to a bottle of cAMP-d2 and a bottle of anti-cAMP-cryptate lyophilized powder, respectively, and the mixture was mixed well by gently turning the mixture upside down, aliquoted according to 125, 62.5, and 30 μL, and the like, and cryopreserved in the dark at −80° C.
1.3.2.1 Positive compound DAMGO and the test compound were serially diluted 4-fold to obtain 10 concentrations with Bravo using experimental buffer in a compound plate (Greiner-781280) at a starting concentration of 2 μM (from DMSO stock solution diluted with experimental buffer) and 20 μM (from DMSO stock solution diluted with experimental buffer), respectively.
1.3.2.2 Cells cryopreserved were thawed in a water bath at 37° C., the cell suspension was added to a centrifuge tube containing 10 mL of HBSS buffer, and the mixture was centrifuged at 750 rpm for 5 min. The supernatant was discarded, the pellet was resuspended in an appropriate amount of experimental buffer, and 20 μL of the pellet was counted using a cell counter. An appropriate amount of the cell suspension was diluted to 0.4×10^6 cells/mL, and 5 μL of the cell suspension was added to each well of a cell plate (the cell density was 2000 cells/well) and centrifuged at 1000 rpm for 1 min. 5 μL of the diluted compound was transferred to a cell plate (PerkinElmer-6008280) with Bravo, 5 μL of 2 μM DAMGO (the final concentration was 1 μM) was transferred to positive control wells, and an equal volume of experimental buffer was transferred to negative control wells, and the cell plate was centrifuged at 1000 rpm for 1 min. The cell plate was sealed and incubated at room temperature for 15 min. Forskolin was diluted to 0.2 mM with DMSO, 25.1 nL of which was transferred to a cell plate with Tecan-D300e, and the plate was centrifuged at 1000 rpm for 1 min, sealed, and incubated at room temperature for 45 min.
The final concentration of the initial point was 712 nM.
1.3.2.4 Preparation of detection reagent: an appropriate amount of a cAMP-d2 stock solution and an anti-cAMP-cryptate stock solution was diluted with a lysis buffer according to the ratio of 1:20, the two solutions were then mixed well by turning the solutions upside down according to the ratio of 1:1, and vortexing was prohibited. 10 μL of the prepared detection reagent was added to a cell plate and centrifuged at 1000 rpm for 1 min. The cell plate was incubated at room temperature for 1 h in the dark. After the cell plate was centrifuged at 1000 rpm for 1 min, the plate was read using Envision. Excitation light at 340 nm, emission light at 620 nm and 665 nm.
The formula for calculating the compound activation rate in the agonist test: […]
On the technique in general: Cyclic AMP is a second messenger, typically raised through Gs and lowered through Gi signalling.

Assay [1] relates to pain threshold of a mouse. Briefly: Mouse thermal radiation tail-flick method. The following applies: for Maximum analgesic percentage (% MPE): ICR mice, intragastric 10 mg/kg, Mean ± SEM, n = 9-10. In kind it is in vivo, ICR mice. The protocol: • Intragastric administration at a dose of 10 mg/kg;
ICR mice (normal grade, weighed 25-35 g, purchased from Shanghai Slac Laboratory Animal Co., Ltd.) were first mounted in a special plastic cylinder, their tails were exposed and allowed to droop naturally, and the measurements were made after the animals were calm. The radiation heat source could be an 8.75 mm projection lamp (32 W, adjustable). A light beam with the diameter of about 4 mm was emitted after being focused by a lens, which irradiated the skin at the junction of the middle third and the lower third of the tail (the light source and the skin at the tail must be closely attached); an electronic timer connected with the light source in parallel was used to synchronously record the irradiation duration, that is, when the irradiation started, a stopwatch was automatically started at the same time. When the tail of the animal obviously evaded, the timing was automatically stopped. The measured time interval was the tail flick latency. Mice with tail flick latency of 2-6 seconds were screened to participate in a grouping administration experiment. […] After a dose of a drug was administered to the mice, the pain threshold of the mice was measured at different times.
After a dose of a drug was administered to the mice, the pain threshold of the mice was measured at 0.5 h, 1 h, 2 h, and 3 h (effect view of the analgesic effect is shown in FIG. 1). The formula for calculating the maximum analgesic percentage (% MPE) after administration was as follows: % MPE=(post-administration pain threshold−pre-administration pain threshold)/(15−pre-administration pain threshold)×100%.
A general note: Thermal pain tests record how soon the animal reacts.

T1 sequence (P35372 whole entry): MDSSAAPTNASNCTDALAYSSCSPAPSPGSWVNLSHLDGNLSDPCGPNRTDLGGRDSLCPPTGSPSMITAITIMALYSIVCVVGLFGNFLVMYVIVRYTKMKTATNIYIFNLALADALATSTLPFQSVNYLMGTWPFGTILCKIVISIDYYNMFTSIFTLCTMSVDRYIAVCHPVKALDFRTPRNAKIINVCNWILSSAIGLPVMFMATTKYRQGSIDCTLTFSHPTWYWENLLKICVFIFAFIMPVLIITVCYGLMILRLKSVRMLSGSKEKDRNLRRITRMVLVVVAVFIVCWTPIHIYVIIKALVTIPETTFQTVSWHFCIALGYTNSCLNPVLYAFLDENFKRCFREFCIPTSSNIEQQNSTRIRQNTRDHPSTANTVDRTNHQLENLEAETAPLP

For orientation: EC50 means the concentration at which the effect is half-maximal. Broadly, the Emax is the maximal effect, on the per cent scale that the assay sets. As to `Fc1ccc(C2(CCN[C@H]3CCc4ccc(F)cc43)CCOC3(CCOCC3)C2)nc1` (stereo partly drawn) [Compound 1-1, (1S)-6-fluoro-N-(2-(4-(5-fluoropyridin-2-yl)-1,9-dioxaspiro[5.5]undecan-4-yl)ethyl)-2,3-dihydro-1H-inden-1-amine], at MOR, the EC50 was found to be 0.44 nM and the Emax was 103%.
Take `COc1ccc2c3c1O[C@H]1C(=O)CC[C@@]4(O)[C@@H](C2)N(C)CC[C@]314` [Oxycodone, reference compound]: the “Maximum analgesic percentage (% MPE)” value in assay [1] (0.5 h after administration) was 37.87 ± 12.44%; in assay [1] (2 h after administration) it was 3.63 ± 8.14%; in assay [1] (3 h after administration) it was −0.23 ± 6.48%. At MOR, the Emax stood at 95.2%.
Take `Fc1ccc(C2(CCN[C@H]3CCc4c(F)cccc43)CCOC3(CCOCC3)C2)nc1` (stereo partly drawn) [Compound 2-1, (1S)-4-fluoro-N-(2-(4-(5-fluoropyridin-2-yl)-1,9-dioxaspiro[5.5]undecan-4-yl)ethyl)-2,3-dihydro-1H-inden-1-amine]: on MOR, the EC50 was determined as 23.5 nM and the Emax came to 101%.
Regarding `Clc1cccc2c1CCC2NCCC1(c2ccccn2)CCOC2(CCOCC2)C1` (stereo not shown) [Compound 16, 4-chloro-N-(2-(4-(pyridin-2-yl)-1,9-dioxaspiro[5.5]undecan-4-yl)ethyl)-2,3-dihydro-1H-inden-1-amine], at MOR, the EC50 came out at 2.4 nM and the Emax was 102%.
Take `Fc1ccc(C2(CCNC3CCc4ccc(Cl)cc43)CCOC3(CCOCC3)C2)nc1` (stereo not shown) [Compound 4, 6-chloro-N-(2-(4-(5-fluoropyridin-2-yl)-1,9-dioxaspiro[5.5]undecan-4-yl)ethyl)-2,3-dihydro-1H-inden-1-amine]: on MOR, the EC50 is 2.19 nM and the maximal response (Emax) worked out at 103%.
Take `Fc1ccc(C2(CCN[C@H]3CCc4c(Br)cccc43)CCOC3(CCOCC3)C2)nc1` (stereo partly drawn) [Compound 7-1, (1S)-4-bromo-N-(2-(4-(5-fluoropyridin-2-yl)-1,9-dioxaspiro[5.5]undecan-4-yl)ethyl)-2,3-dihydro-1H-inden-1-amine]: on MOR, the EC50 amounted to 1.69 nM and the Emax stood at 116%.
Consider `Fc1ccc(C2(CCNCc3cccc(Cl)c3F)CCOC3(CCOCC3)C2)nc1` (stereo not shown) [Compound 14, N-(3-chloro-2-fluorobenzyl)-2-(4-(5-fluoropyridin-2-yl)-1,9-dioxaspiro[5.5]undecan-4-yl)ethan-1-amine], for which, on MOR, the concentration giving a half-maximal response (EC50) came to 24.2 nM and the Emax was 88.1%.
Taken in the same sequence, the figures for `Fc1ccc(C2(CCNC3Cc4cccc(Cl)c4C3)CCOC3(CCOCC3)C2)nc1` (stereo not shown) [Compound 17, 4-chloro-N-(2-(4-(5-fluoropyridin-2-yl)-1,9-dioxaspiro[5.5]undecan-4-yl)ethyl)-2,3-dihydro-1H-inden-2-amine] were 2.14 nM and 93.8%.
Taken in the same sequence, the figures for `Fc1ccc(C2(CCNCc3cccc(Cl)c3Cl)CCOC3(CCOCC3)C2)nc1` (stereo not shown) [Compound 13, N-(2,3-dichlorobenzyl)-2-(4-(5-fluoropyridin-2-yl)-1,9-dioxaspiro[5.5]undecan-4-yl)ethan-1-amine] were 17.3 nM and 78.9%.
Regarding `Fc1ccc(C2(CCN[C@H]3CCc4c(Cl)cccc43)CCOC3(CCOCC3)C2)nc1` (stereo partly drawn) [Compound 5-1, (1S)-4-chloro-N-(2-(4-(5-fluoropyridin-2-yl)-1,9-dioxaspiro[5.5]undecan-4-yl)ethyl)-2,3-dihydro-1H-inden-1-amine], at MOR, the EC50 came to 1.33 nM and the Emax stood at 111%.
For `Cc1cccc2c1CC[C@@H]2NCCC1(c2ccc(F)cn2)CCOC2(CCOCC2)C1` (stereo partly drawn) [Compound 6-1, (1S)-N-(2-(4-(5-fluoropyridin-2-yl)-1,9-dioxaspiro[5.5]undecan-4-yl)ethyl)-4-methyl-2,3-dihydro-1H-inden-1-amine], on MOR, the EC50 is 1.56 nM and the Emax was 118%.
On to `Cc1c(Cl)cccc1CNCC[C@@]1(c2ccc(F)cn2)CCOC2(CCOCC2)C1` [Compound 12-1, (R)—N-(3-chloro-2-methylbenzyl)-2-(4-(5-fluoropyridin-2-yl)-1,9-dioxaspiro[5.5]undecan-4-yl)ethan-1-amine], for which the “Maximum analgesic percentage (% MPE)” value in assay [1] (0.5 h after administration) is 99.48 ± 0.52 %; in assay [1] (1 h after administration), 86.20 ± 9.32 %; in assay [1] (2 h after administration) it was 89.98 ± 10.02 %; in assay [1] (3 h after administration), 78.89 ± 10.05 %. The “Maintenance of the analgesic effect compared with oxycodone” value in assay [1] (mouse tail flick, 0.5-3 h after administration) is on record as “maintained for a longer period of time”. In addition, the “Drug effect compared with oxycodone” value in assay [1] (mouse tail flick, same dose (10 mg/kg intragastric)) is recorded as “better drug effect than oxycodone”. For the same molecule, the EC50 on MOR was found to be 1.29 nM. Besides, on MOR, the Emax came out at 93.8%.
In the case of `Fc1ccc(C2(CCN[C@H]3CCc4ccccc43)CCOC3(CCOCC3)C2)nc1` (stereo partly drawn) [Compound 3-1, (1S)-N-(2-(-4-(5-fluoropyridin-2-yl)-1,9-dioxaspiro[5.5]undecan-4-yl)ethyl)-2,3-dihydro-1H-inden-1-amine], on MOR, the EC50 was 0.79 nM and the Emax was 99.9%.
The like results for `Fc1ccc([C@]2(CCN[C@H]3Cc4cccc(Cl)c4C3)CCOC3(CCOCC3)C2)nc1` [Compound 17-1-1, (S)-4-chloro-N-(2-((R)-4-(5-fluoropyridin-2-yl)-1,9-dioxaspiro[5.5]undecan-4-yl)ethyl)-2,3-dihydro-1H-inden-2-amine] were, in that order, 0.64 nM and 102%.
For `Fc1ccc(C2(CCNCc3cccc(Cl)c3)CCOC3(CCOCC3)C2)nc1` (stereo not shown) [Compound 11, N-(3-chlorobenzyl)-2-(4-(5-fluoropyridin-2-yl)-1,9-dioxaspiro[5.5]undecan-4-yl)ethan-1-amine], at MOR, the EC50 is 7.75 nM and the Emax turned out to be 100%.
As for `Fc1ccc([C@]2(CCN[C@H]3Cc4cccc(Br)c4C3)CCOC3(CCOCC3)C2)nc1` [Compound 10-1-1, (S)-4-bromo-N-(2-((R)-4-(5-fluoropyridin-2-yl)-1,9-dioxaspiro[5.5]undecan-4-yl)ethyl)-2,3-dihydro-1H-inden-2-amine], at MOR, the EC50 was 0.8 nM and the maximal response (Emax) amounted to 104%.
